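Following 48 hours of exposure in 96-well plates, responses at five concentrations were used to interpolate endpoints linearly. TGI: total growth inhibition.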
Columns and labels:
Experiment in all cases: NCI-60 cell line screen, 48 h
[1] = system: NCI/ADR-RES ovarian
[2] = system: MDA-N
[3] = system: T-47D breast
[4] = system: MALME-3M melanoma
[5] = system: LOX IMVI melanoma
[6] = system: OVCAR-8 ovarian
[7] = system: OVCAR-3 ovarian
[8] = system: NCI-H522 lung
[9] = system: SNB-75 CNS
[10] = system: HOP-62 NSCLC
[11] = system: NCI-H460 lung
[12] = system: NCI-H23 lung
[13] = system: HS 578T breast
[14] = system: NCI-H226 lung
[15] = system: OVCAR-5 ovarian
[16] = system: PC-3 prostate
[17] = system: DU-145 prostate
[18] = system: HT29 colon
[19] = system: SK-OV-3 ovarian
[20] = system: RPMI-8226 leukemia
[21] = system: MCF7 breast
[22] = system: SK-MEL-5 melanoma
[23] = system: ACHN renal
[24] = system: UO-31 renal
[25] = system: MDA-MB-435
[26] = system: SF-295 CNS
[27] = system: SR leukemia
[28] = system: UACC-62 melanoma
[29] = system: HCT-15 colon
[30] = system: SN12C renal
[31] = system: IGROV1 ovarian
[32] = system: A549 NSCLC
[33] = system: RXF 393 renal
[34] = system: BT-549 breast
[35] = system: HL-60(TB) leukemia
[36] = system: HOP-92 NSCLC
[37] = system: SNB-19 CNS
[38] = system: CAKI-1 renal
[39] = system: UACC-257 melanoma
[40] = system: SF-268 CNS
[41] = system: HCT-116 colon
[42] = system: 786-0 renal
[43] = system: SW-620 colon
[44] = system: CCRF-CEM leukemia
[45] = system: HCC-2998 colon
[46] = system: U251 CNS
[47] = system: COLO 205 colon
[48] = system: SK-MEL-2 melanoma
[49] = system: MOLT-4 leukemia
[50] = system: A498 renal
[51] = system: MDA-MB-231 breast
[52] = system: SF-539 CNS
[53] = system: SK-MEL-28 melanoma
[54] = system: K-562 leukemia
[55] = system: KM12 colon
[56] = system: EKVX NSCLC
[57] = system: M14 melanoma

Measured: TGI

CC(=O)OCC1=C(C(=O)O)N2C(=O)C(NC(=O)CSc3ccncc3)C2SC1 (configuration not stated)
> 100 µM: all assays above
